Numbered stars: 1 amine (or outer) side, 2 acyl side, 3 side chain; on linkers, the order of the positions; unused ones are H or OH. Bridge positions count the residues as written; N and C are the ends. Ends that are not written are not given here. Peptide text beside a SMILES is read from it. Suc = O=C(CCC(=O)[*:2])[*:1]
Biological target: SARS-CoV-2 spike protein RBD (Severe acute respiratory syndrome coronavirus 2, UniProt P0DTC2)
Assay: biochemical
Assay type: binding
Conditions: for kon: read-out: Ka; for Binding (Yes/No): pH 7.4

| Molecule | kon [M⁻¹ s⁻¹] | other results |
| --- | --- | --- |
| CSCC[C@@H]1NC(=O)[C@H](CC(C)C)NC(=O)[C@H](CCCCN)NC(=O)[C@H](CCC(=O)O)NC(=O)[C@H](Cc2ccccc2)NC(=O)[C@H](CC(C)C)NC(=O)[C@H](CC(=O)O)NC(=O)[C@H](CCC(=O)O)NC(=O)[C@H](C)NC(=O)[C@H](CCC(=O)O)NC(=O)[C@H](Cc2c[nH]cn2)NC(=O)[C@H](CC(N)=O)NC(=O)[C@H](Cc2ccccc2)NC(=O)[C@H](CCCCN)NC1=O [Peptide 3] (cyclo(AEDLFEKLMKFNHE)) | 15.1 ± 3.8 | – |
| CSCC[C@H](NC(=O)[C@H](CC(C)C)NC(=O)[C@H](CCCCN)NC(=O)[C@H](CCC(=O)O)NC(=O)[C@H](Cc1ccccc1)NC(=O)[C@H](CC(C)C)NC(=O)[C@H](CC(=O)O)NC(=O)[C@H](CCC(=O)O)NC(=O)[C@H](C)NC(=O)[C@H](CCC(=O)O)NC(=O)[C@H](Cc1c[nH]cn1)NC(=O)[C@H](CC(N)=O)NC(=O)[C@H](Cc1ccccc1)NC(=O)[C@H](CCCCN)NC(=O)CCC(=O)O)C(N)=O [Peptide 4] (Suc-KFNHEAEDLFEKLM-NH2) | 13.9 ± 3.6 | – |
| CSCC[C@@H]1NC(=O)[C@H](CC(C)C)NC(=O)[C@H](CCCCN)NC(=O)[C@H](CCC(=O)O)NC(=O)[C@H](Cc2ccccc2)NC(=O)[C@H](CC(C)C)NC(=O)[C@H](CC(=O)O)NC(=O)[C@H](CCC(=O)O)NC(=O)[C@H](C)NC(=O)[C@H](CCC(=O)O)NC(=O)[C@H](Cc2c[nH]cn2)NC(=O)[C@H](CC(N)=O)NC(=O)[C@H](Cc2ccccc2)NC(=O)[C@H](CCCCN)NC(=O)[C@@H](N)CSSC[C@@H](C(N)=O)NC1=O [Peptide 6] (H-CKFNHEAEDLFEKLMC-NH2; disulfide 1-16) | 6.84 ± 2.46 | – |
| CSCC[C@H](NC(=O)[C@H](CC(=O)O)NC(=O)[C@H](CCC(=O)O)NC(=O)[C@H](Cc1ccccc1)NC(=O)[C@H](CC(C)C)NC(=O)[C@H](CCC(=O)O)NC(=O)[C@H](CCC(=O)O)NC(=O)[C@H](Cc1ccccc1)NC(=O)[C@H](CC(C)C)NC(=O)[C@H](CCCCN)NC(=O)[C@H](CCC(=O)O)NC(=O)[C@H](Cc1ccccc1)NC(=O)[C@H](CC(C)C)NC(=O)[C@H](CC(=O)O)NC(=O)[C@H](CCC(=O)O)NC(=O)[C@H](C)NC(=O)[C@H](CCC(=O)O)NC(=O)[C@H](Cc1c[nH]cn1)NC(=O)[C@H](CC(N)=O)NC(=O)[C@H](Cc1ccccc1)NC(=O)[C@H](CCCCN)NC(=O)CCC(=O)O)C(N)=O [Peptide 7] (Suc-KFNHEAEDLFEKLFEELFEDM-NH2) | 4.29 ± 0.52 | Kd: (2.09 ± 0.39) × 10^−2 M^−1; Binding (Yes/No): Yes |
| CC(C)C[C@H](NC(=O)CCC(=O)O)C(=O)N[C@@H](CC(C)C)C(=O)N[C@@H](CCC(=O)O)C(=O)N[C@@H](CCCCN)C(=O)N[C@@H](CC(C)C)C(=O)N[C@@H](CC(C)C)C(=O)N[C@@H](CCC(=O)O)C(=O)N[C@@H](Cc1c[nH]c2ccccc12)C(=O)N[C@@H](CC(C)C)C(=O)N[C@@H](CCC(=O)O)C(N)=O [Peptide 9] (Suc-LLEKLLEWLE-NH2) | 5.83 ± 2.92 | Kd: (1.39 ± 0.16) × 10^−2 M^−1; Binding (Yes/No): Yes |
| Ac-KFNHEAEDLFEKLM [Peptide 5] | 0.64 ± 0.09 | – |
| GLFKEALEELWEA-NH2 [Peptide 8] | 5.39 ± 1.31 | – |
| KFNDEAEDLFKLFEELFEDM-NH2 [Peptide 10] | 6.81 ± 2.41 | – |
| KFNHEAEDLFEKLM [Peptide 1] | 4.62 ± 0.45 | – |
| KFNHEAEDLFEKLM-NH2 [Peptide 2] | 1.15 ± 0.08 | – |
| MIEEQAKFLDKFNHEAEDLFK-NH2 [Peptide 11] | – | binding to the spike protein RBD at higher concentrations: bound |

From PMC9000588 (Molecules, 2022)
